Reference: ChEMBL document CHEMBL5550173, “Design, synthesis and biological evaluation of indoline-maleimide conjugates as potential antitumor agents for the treatment of colorectal cancer” (Bioorg Med Chem, 2024)
Activity calls are given as the source filed them. No cut-off for these calls is given here.

Tests used:
RKO [1] = experiment: Cytotoxicity against human RKO cells incubated for 72 hrs by MTS assay; assay type: functional, cell-based
RKO [2] = experiment: Inhibition of cell migration in human RKO cells at 2.5 to 10 uM measured upto 48 hrs by scratch wound healing assay; assay type: functional, cell-based; conditions: dose 2.5-10 µM
RKO [3] = experiment: Induction of cell cycle arrest in human RKO cells assessed as downregulation of CDK4 expression at 2.5 to 10 uM incubated for 48 hrs by Western blotting analysis; assay type: functional, cell-based; conditions: dose 2.5-10 µM
HCT-116 [4] = experiment: Effect on CDK2 expression in human HCT-116 cells at 2.5 to 10 uM incubated for 48 hrs by Western blotting analysis; assay type: functional, cell-based; conditions: dose 2.5-10 µM
HT-29 = experiment: Cytotoxicity against human HT-29 cells incubated for 72 hrs by MTS assay; assay type: functional, cell-based; conditions: HT-29, 72 h
HCT-116 [5] = experiment: Induction of cell cycle arrest in human HCT-116 cells assessed as decrease in S phase cells incubated for 48 hrs by propidium iodide staining based flow cytometry analysis; assay type: functional; conditions: dose 2.5-10 µM
RKO [6] = experiment: Induction of apoptosis in human RKO cells assessed as late apoptotic cells at 10 uM incubated for 48 hrs by Annexin V-PE and propidium iodide staining based flow cytometry analysis (reference value: 0.3%); assay type: functional
HCT-116 [7] = experiment: Induction of cell cycle arrest in human HCT-116 cells assessed as downregulation of CDK4 expression at 2.5 to 10 uM incubated for 48 hrs by Western blotting analysis; assay type: functional, cell-based; conditions: dose 2.5-10 µM
HCT-116 [8] = experiment: Effect on cyclin D1 expression in human HCT-116 cells at 2.5 to 10 uM incubated for 48 hrs by Western blotting analysis; assay type: functional, cell-based; conditions: dose 2.5-10 µM
RKO [9] = experiment: Inhibition of colony formation in human RKO cells incubated about 10 days with every 3 days of media replacement by crystal violet staining based assay; assay type: functional, cell-based; conditions: dose 1-4 µM, time 10.0 day
RKO [10] = experiment: Induction of cell cycle arrest in human RKO cells assessed as upregulation of p21 expression at 2.5 to 10 uM incubated for 48 hrs by Western blotting analysis; assay type: functional, cell-based; conditions: dose 2.5-10 µM
HCT-116 [11] = experiment: Induction of apoptosis in human HCT-116 cells assessed as upregulation of cleaved caspase-3 expression incubated for 48 hrs by Western blotting analysis; assay type: functional, cell-based; conditions: dose 2.5-10 µM
[12] = Acute toxicity in BALB/c mouse assessed as kidney lesion at 50 to 100 mg/kg, ip measured every 2 days by H and E staining based assay; assay type: organism-based; conditions: in vivo, 48 h, dose 50-100 mg/kg
RKO [13] = experiment: Induction of apoptosis in human RKO cells assessed as late apoptotic cells at 2.5 uM incubated for 48 hrs by Annexin V-PE and propidium iodide staining based flow cytometry analysis (reference value: 0.3%); assay type: functional
RKO [14] = experiment: Induction of apoptosis in human RKO cells assessed as necrotic cells at 5 uM incubated for 48 hrs by Annexin V-PE and propidium iodide staining based flow cytometry analysis (reference value: 0.3%); assay type: functional
HCT-116 [15] = experiment: Inhibition of colony formation in human HCT-116 cells at 4 uM incubated for 10 days with every 3 days of media replacement by crystal violet staining based assay; assay type: functional; conditions: HCT-116, 240 h, time 10 day
RKO [16] = experiment: Induction of apoptosis in human RKO cells assessed as late apoptotic cells at 5 uM incubated for 48 hrs by Annexin V-PE and propidium iodide staining based flow cytometry analysis (reference value: 0.3%); assay type: functional
HCT-116 [17] = experiment: Induction of apoptosis in human HCT-116 cells assessed as late apoptotic cells at 5 uM incubated for 48 hrs by Annexin V-PE and propidium iodide staining based flow cytometry analysis (reference value: 0.5%); assay type: functional
[18] = Acute toxicity in BALB/c mouse assessed as heart lesion at 50 to 100 mg/kg, ip measured every 2 days by H and E staining based assay; assay type: organism-based; conditions: in vivo, 48 h, dose 50-100 mg/kg
HCT-116 [19] = experiment: Induction of apoptosis in human HCT-116 cells assessed as necrotic cells at 2.5 uM incubated for 48 hrs by Annexin V-PE and propidium iodide staining based flow cytometry analysis (reference value: 1.3%); assay type: functional
HCT-116 [20] = experiment: Cytotoxicity against human HCT-116 cells incubated for 72 hrs by MTS assay; assay type: functional, cell-based; conditions: HCT-116, 72 h
RKO [21] = experiment: Inhibition of colony formation in human RKO cells at 4 uM incubated for 10 days with every 3 days of media replacement by crystal violet staining based assay; assay type: functional; conditions: 240 h, time 10 day
RKO [22] = experiment: Induction of apoptosis in human RKO cells assessed as early apoptotic cells at 10 uM incubated for 48 hrs by Annexin V-PE and propidium iodide staining based flow cytometry analysis (reference value: 0.2%); assay type: functional
HCT-116 [23] = experiment: Induction of apoptosis in human HCT-116 cells assessed as early apoptotic cells at 10 uM incubated for 48 hrs by Annexin V-PE and propidium iodide staining based flow cytometry analysis (reference value: 0.4%); assay type: functional
HCT-116 [24] = experiment: Effect on AKT level in human HCT-116 cells at 2.5 to 10 uM incubated for 48 hrs by Western blotting analysis; assay type: functional, cell-based; conditions: dose 2.5-10 µM
HCT-116 [25] = experiment: Induction of cell cycle arrest in human HCT-116 cells assessed as accumulation of cells at G0/G1 phase incubated for 48 hrs by propidium iodide staining based flow cytometry analysis; assay type: functional; conditions: dose 2.5-10 µM
HCT-116 [26] = experiment: Effect on GSK-3beta level in human HCT-116 cells at 2.5 to 10 uM incubated for 48 hrs by Western blotting analysis; assay type: functional, cell-based; conditions: dose 2.5-10 µM
RKO [27] = experiment: Effect on cyclin D1 expression in human RKO cells at 2.5 to 10 uM incubated for 48 hrs by Western blotting analysis; assay type: functional, cell-based; conditions: dose 2.5-10 µM
HCT-116 [28] = experiment: Induction of apoptosis in human HCT-116 cells assessed as late apoptotic cells at 10 uM incubated for 48 hrs by Annexin V-PE and propidium iodide staining based flow cytometry analysis (reference value: 0.5%); assay type: functional
HCT-116 [29] = experiment: Induction of apoptosis in human HCT-116 cells assessed as viable cells at 5 uM incubated for 48 hrs by Annexin V-PE and propidium iodide staining based flow cytometry analysis (reference value: 97.8%); assay type: functional; conditions: read-out: Activity
[30] = target: Glycogen synthase kinase-3 beta (Homo sapiens) (UniProt P49841); experiment: Inhibition of GSK-3beta phosphorylation in human HCT-116 cells by incubated for 48 hrs Western blotting analysis; assay type: cell-based; conditions: dose 2.5-10 µM
Chain of Glycogen synthase kinase-3 beta (Homo sapiens) (P49841 whole entry, looked up): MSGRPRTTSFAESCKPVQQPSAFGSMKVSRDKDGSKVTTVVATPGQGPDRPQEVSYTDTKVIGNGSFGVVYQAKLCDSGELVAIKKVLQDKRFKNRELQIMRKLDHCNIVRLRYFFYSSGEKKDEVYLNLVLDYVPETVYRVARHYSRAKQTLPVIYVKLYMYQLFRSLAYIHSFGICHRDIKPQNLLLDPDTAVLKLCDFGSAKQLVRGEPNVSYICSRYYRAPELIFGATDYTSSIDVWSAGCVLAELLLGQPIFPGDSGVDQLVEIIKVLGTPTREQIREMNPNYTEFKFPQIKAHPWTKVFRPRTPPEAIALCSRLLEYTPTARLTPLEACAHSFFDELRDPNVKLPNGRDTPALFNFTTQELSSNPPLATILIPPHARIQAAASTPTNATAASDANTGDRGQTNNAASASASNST

RKO [31] = experiment: Effect on CDK2 expression in human RKO cells at 2.5 to 10 uM incubated for 48 hrs by Western blotting analysis; assay type: functional, cell-based; conditions: dose 2.5-10 µM
[32] = Acute toxicity in BALB/c mouse assessed as lung lesion at 50 to 100 mg/kg, ip measured every 2 days by H and E staining based assay; assay type: organism-based; conditions: in vivo, 48 h, dose 50-100 mg/kg
RKO [33] = experiment: Induction of apoptosis in human RKO cells assessed as viable cells at 5 uM incubated for 48 hrs by Annexin V-PE and propidium iodide staining based flow cytometry analysis (reference value: 99.2%); assay type: functional; conditions: read-out: Activity
[34] = target: Serine/threonine-protein kinase AKT (Homo sapiens) (UniProt P31751+Q9Y243+P31749); experiment: Inhibition of AKT phosphorylation in human HCT-116 cells by incubated for 48 hrs Western blotting analysis; assay type: cell-based; conditions: dose 2.5-10 µM
Chain of Serine/threonine-protein kinase AKT (Homo sapiens) (P31749 whole entry, looked up): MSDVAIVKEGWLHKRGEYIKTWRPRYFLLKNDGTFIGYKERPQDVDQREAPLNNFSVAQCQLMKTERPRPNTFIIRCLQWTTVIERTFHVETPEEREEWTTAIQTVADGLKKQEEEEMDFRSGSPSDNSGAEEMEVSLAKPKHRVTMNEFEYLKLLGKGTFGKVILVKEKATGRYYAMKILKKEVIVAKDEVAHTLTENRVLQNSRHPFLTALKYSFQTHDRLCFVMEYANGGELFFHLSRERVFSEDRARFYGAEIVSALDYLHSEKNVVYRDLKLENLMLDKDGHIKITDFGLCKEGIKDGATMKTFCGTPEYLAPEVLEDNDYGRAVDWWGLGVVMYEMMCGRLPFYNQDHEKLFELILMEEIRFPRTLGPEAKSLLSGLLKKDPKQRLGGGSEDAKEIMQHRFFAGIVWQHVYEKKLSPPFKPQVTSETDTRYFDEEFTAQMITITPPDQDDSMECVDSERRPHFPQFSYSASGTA
Chain of Serine/threonine-protein kinase AKT (Homo sapiens) (P31751 whole entry, looked up): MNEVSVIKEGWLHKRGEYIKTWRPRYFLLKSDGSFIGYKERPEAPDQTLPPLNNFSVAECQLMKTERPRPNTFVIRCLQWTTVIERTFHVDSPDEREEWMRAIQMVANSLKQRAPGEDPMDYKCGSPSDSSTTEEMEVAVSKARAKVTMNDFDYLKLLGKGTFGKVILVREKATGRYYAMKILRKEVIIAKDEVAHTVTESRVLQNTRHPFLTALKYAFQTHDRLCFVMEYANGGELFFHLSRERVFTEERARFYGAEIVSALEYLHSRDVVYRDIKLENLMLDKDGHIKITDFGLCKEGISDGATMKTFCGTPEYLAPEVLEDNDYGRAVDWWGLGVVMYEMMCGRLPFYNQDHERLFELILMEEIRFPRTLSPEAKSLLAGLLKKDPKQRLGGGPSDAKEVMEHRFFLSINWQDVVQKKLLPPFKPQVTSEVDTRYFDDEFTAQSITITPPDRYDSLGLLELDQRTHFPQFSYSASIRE
Chain of Serine/threonine-protein kinase AKT (Homo sapiens) (Q9Y243 whole entry, looked up): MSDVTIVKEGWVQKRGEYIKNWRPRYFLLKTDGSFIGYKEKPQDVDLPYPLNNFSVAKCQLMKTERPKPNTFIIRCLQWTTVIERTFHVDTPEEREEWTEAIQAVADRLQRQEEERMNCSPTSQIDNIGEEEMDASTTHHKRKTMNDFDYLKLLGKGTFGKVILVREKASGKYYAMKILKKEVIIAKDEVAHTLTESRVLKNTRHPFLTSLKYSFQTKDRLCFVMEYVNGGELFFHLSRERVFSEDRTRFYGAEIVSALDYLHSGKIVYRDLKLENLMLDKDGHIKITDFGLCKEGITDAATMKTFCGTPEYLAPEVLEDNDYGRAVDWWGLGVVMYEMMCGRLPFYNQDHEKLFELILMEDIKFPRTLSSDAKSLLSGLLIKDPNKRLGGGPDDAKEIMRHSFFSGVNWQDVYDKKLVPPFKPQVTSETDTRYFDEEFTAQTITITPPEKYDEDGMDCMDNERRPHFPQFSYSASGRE

HCT-116 [35] = experiment: Cytotoxicity against human HCT-116 cells at 5 uM incubated for 72 hrs by MTS assay; assay type: functional
HCT-116 [36] = experiment: Antitumor activity against human HCT-116 cells xenografted in BALB/c mouse assessed as tumor growth suppression at 5 to 10 mg/kg, ip measured every 2 days by H and E staining based assay; assay type: functional, organism-based; conditions: dose 5-10 mg/kg
RKO [37] = experiment: Induction of apoptosis in human RKO cells assessed as viable cells at 2.5 uM incubated for 48 hrs by Annexin V-PE and propidium iodide staining based flow cytometry analysis (reference value: 99.2%); assay type: functional; conditions: read-out: Activity

For C=C(C)C(=O)N1CCc2cccc(C3=CC(=O)N(C)C3=O)c21, the IC50 (RKO [1]) was 1100 nM, the inhibition (RKO [2]) was “Active” and the Activity (RKO [3]) was “Active”. For the same compound, the Activity (HCT-116 [4]) was “inactive”, the IC50 (HT-29) was 1730 nM and the Activity (HCT-116 [5]) was “Dose-Dependent Effect”. For the same compound, the Activity (RKO [6]) was 1.1%, the Activity (HCT-116 [7]) was “Active” and the Activity (HCT-116 [8]) was “inactive”. For the same compound, the inhibition (RKO [9]) was “Dose-Dependent Effect”, the Activity (RKO [10]) was “Active” and the Activity (HCT-116 [11]) was “Dose-Dependent Effect”. The Activity [12] was “Non-Toxic”, the Activity (RKO [13]) was 0.4% and the Activity (RKO [14]) was 0%. For the same compound, the inhibition at 4 µM (HCT-116 [15]) was 100%, the Activity (RKO [16]) was 0.4% and the Activity (HCT-116 [17]) was 1.7%. For the same compound, the Activity [18] was “Non-Toxic”, the Activity (HCT-116 [19]) was 1.8% and the IC50 (HCT-116 [20]) was 1570 nM. It also gave an inhibition at 4 µM (RKO [21]) of 100%, an Activity (RKO [22]) of 4.9% and an Activity (HCT-116 [23]) of 5%. The Activity (HCT-116 [24]) was “inactive”, the Activity (HCT-116 [25]) was “Dose-Dependent Effect” and the Activity (HCT-116 [26]) was “inactive”. The Activity (RKO [27]) was “inactive”, the Activity (HCT-116 [28]) was 4.6% and the viability at 5 µM (HCT-116 [29]) was 93.6%. The inhibition [30] was “Dose-Dependent Effect”, the Activity (RKO [31]) was “inactive” and the Activity [32] was “Non-Toxic”. The viability at 5 µM (RKO [33]) was 98%, the inhibition [34] was “Dose-Dependent Effect” and the Activity (HCT-116 [35]) was 98.06%. The Activity (HCT-116 [36]) was “Active” and the viability at 2.5 µM (RKO [37]) was 99%.
